Test results as given in patent US6274715A, “Tricyclic erythromycin derivatives” (priority 1997, dated 2001).
Converted amounts (≈) assume the structure as drawn.

How the values were obtained:
Format in all cases: cell-based
[1] = system: STAPHYLOCOCCUS AUREUS NCTC10649M; assay: In vitro antibacterial activity, MIC, BHI agar dilution; conditions: S. aureus NCTC10649M, unit assumed
CANDIDA ALBICANS CCH 442 = assay: as above; conditions: C. albicans CCH 442, unit assumed
[2] = system: MYCOBACTERIUM SMEGMATIS ATCC 114; assay: as above; conditions: M. smegmatis ATCC 114, unit assumed
[3] = system: PSEUDOMONAS AERUGINOSA K799/WT; assay: as above; conditions: P. aeruginosa K799/WT, unit assumed
STR[…] 508 = assay: as above; conditions: S. agalactiae CMX 508, unit assumed
Summary of the method: (§1)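 MIC was read visually as the lowest drug level with no growth, a slight haze or sparsely isolated colonies relative to a compound-free growth control. Organisms were spotted at 1:100 dilution (1:10 for slow-growing strains) onto Brain Heart Infusion agar containing serial compound dilutions and incubated 20 to 24 hours at 35-37° C.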

M[…] ATCC 9341 = assay: as above; conditions: M. luteus ATCC 9341, unit assumed
Summary of the method: as §1

M[…] ATCC 4698 = assay: as above; conditions: M. luteus ATCC 4698, unit assumed
Summary of the method: as §1

EN[…] ATCC 8043 = assay: as above; conditions: E. faecium ATCC 8043, unit assumed
Summary of the method: as §1

ESCHERICHIA COLI SS = assay: as above; conditions: E. coli SS, unit assumed
[4] = system: PSEUDOMONAS AERUGINOSA BMH10; assay: as above; conditions: P. aeruginosa BMH10, unit assumed
[5] = system: PSEUDOMONAS AERUGINOSA 5007; assay: as above; conditions: P. aeruginosa 5007, unit assumed
[6] = system: STAPHYLOCOCCUS AUREUS CMX 642A; assay: as above; conditions: S. aureus CMX 642A, unit assumed
[7] = system: PSEUDOMONAS AERUGINOSA DPHD-5263; assay: as above; conditions: P. aeruginosa DPHD-5263, unit assumed
[8] = system: STAPHYLOCOCCUS AUREUS ATCC 6538P; assay: as above; conditions: S. aureus ATCC 6538P, 35-37° C., 20 to 24 hours, unit assumed
[9] = system: PSEUDOMONAS AERUGINOSA DPHD-2862; assay: as above; conditions: P. aeruginosa DPHD-2862, unit assumed
ESCHERICHIA COLI DC-2 = assay: as above; conditions: E. coli DC-2, unit assumed
[10] = system: ACINETOBACTER CALCOACETICUS CMX 669; assay: as above; conditions: A. calcoaceticus CMX 669, unit assumed
PSEUDOMONAS CEPACIA 296I = assay: as above; conditions: P. cepacia 296I, unit assumed
[11] = system: STREPTOCOCCUS BOVIS A-5169; assay: as above; conditions: S. bovis A-5169, unit assumed
[12] = system: STREPTOCOCCUS PYOGENES EES61; assay: as above; conditions: S. pyogenes EES61, unit assumed
[13] = system: PSEUDOMONAS AERUGINOSA K799/61; assay: as above; conditions: P. aeruginosa K799/61, unit assumed
[14] = system: ENTEROBACTER AEROGENES ATCC 13048; assay: as above; conditions: E. aerogenes ATCC 13048, unit assumed
[15] = system: STAPHYLOCOCCUS AUREUS A-5278; assay: as above; conditions: S. aureus A-5278, unit assumed
ESCHERICHIA COLI H560 = assay: as above; conditions: E. coli H560, unit assumed
[16] = system: PROVIDENCIA STUARTII CMX 640; conditions: P. stuartii CMX 640; BHI agar; unit assumed
[17] = system: STREPTOCOCCUS PYOGENES PIU 2548; assay: In vitro antibacterial activity, MIC, BHI agar dilution; conditions: S. pyogenes PIU 2548, unit assumed
[18] = system: STAPHYLOCOCCUS AUREUS A5177; assay: as above; conditions: S. aureus A5177, unit assumed
[19] = system: STREPTOCOCCUS PYOGENES 930; assay: as above; conditions: S. pyogenes 930, unit assumed
ESCHERICHIA COLI KNK 437 = conditions: E. coli KNK 437; BHI agar; unit assumed
[20] = system: STAPHYLOCOCCUS AUREUS CMX 553; assay: In vitro antibacterial activity, MIC, BHI agar dilution; conditions: S. aureus CMX 553, unit assumed
[21] = system: STAPHYLOCOCCUS AUREUS 1775; assay: as above; conditions: S. aureus 1775, unit assumed
[22] = system: KLEBSIELLA PNEUMONIAE ATCC 8045; assay: as above; conditions: K. pneumoniae ATCC 8045, unit assumed
[23] = system: STAPHYLOCOCCUS EPIDERMIDIS 3519; conditions: S. epidermidis 3519; BHI agar; unit assumed
ESCHERICHIA COLI JUHL = conditions: E. coli JUHL; BHI agar; unit assumed

CC[C@H]1OC(=O)[C@H](C)C(=O)[C@H](C)[C@@H](O[C@@H]2O[C@H](C)C[C@H](N(C)C)[C@H]2O)[C@](C)(OC)C[C@@H](C)C2=NC[C@H](Cc3ccc(OCc4ccccc4)cc3)N3C(=O)O[C@@]1(C)[C@H]3[C@H]2C [Example 64] gave an MIC [1] of 0.2 µg/mL (≈ 0.24 µM), an MIC (CANDIDA ALBICANS CCH 442) of 50 µg/mL (≈ 59.9 µM) and an MIC [2] of 1.56 µg/mL (≈ 1.87 µM). For the same compound, the MIC [3] was over 100 µg/mL, the MIC (STR[…] 508) was 0.1 µg/mL (≈ 0.12 µM) and the MIC (M[…] ATCC 9341) was 0.1 µg/mL (≈ 0.12 µM). It also gave an MIC (M[…] ATCC 4698) of 0.78 µg/mL (≈ 0.935 µM), an MIC (EN[…] ATCC 8043) of 0.2 µg/mL (≈ 0.24 µM) and an MIC (ESCHERICHIA COLI SS) of 6.2 µg/mL (≈ 7.43 µM). For the same compound, the MIC [4] was over 100 µg/mL, the MIC [5] was over 100 µg/mL and the MIC [6] was 0.39 µg/mL (≈ 0.468 µM). The MIC [7] was over 100 µg/mL, the MIC [8] was 0.39 µg/mL (≈ 0.468 µM) and the MIC [9] was over 100 µg/mL. The MIC (ESCHERICHIA COLI DC-2) was over 100 µg/mL, the MIC [10] was over 100 µg/mL and the MIC (PSEUDOMONAS CEPACIA 296I) was over 100 µg/mL. The MIC [11] was 0.1 µg/mL (≈ 0.12 µM), the MIC [12] was 0.05 µg/mL (≈ 0.0599 µM) and the MIC [13] was 12.5 µg/mL (≈ 15 µM). For the same compound, the MIC [14] was over 100 µg/mL, the MIC [15] was 50 µg/mL (≈ 59.9 µM) and the MIC (ESCHERICHIA COLI H560) was over 100 µg/mL. For the same compound, the MIC [16] was over 100 µg/mL, the MIC [17] was 0.78 µg/mL (≈ 0.935 µM) and the MIC [18] was 0.2 µg/mL (≈ 0.24 µM). It also gave an MIC [19] of 25 µg/mL (≈ 30 µM), an MIC (ESCHERICHIA COLI KNK 437) of over 100 µg/mL and an MIC [20] of 0.2 µg/mL (≈ 0.24 µM). For the same compound, the MIC [21] was 50 µg/mL (≈ 59.9 µM), the MIC [22] was over 100 µg/mL and the MIC [23] was 0.39 µg/mL (≈ 0.468 µM).

Compound CC[C@H]1OC(=O)[C@H](C)C(=O)[C@H](C)[C@@H](O[C@@H]2O[C@H](C)C[C@H](N(C)C)[C@H]2O)[C@](C)(OC)C[C@@H](C)C2=NC[C@H](Cc3ccc(NC(=O)OCc4ccccc4)cc3)N3C(=O)O[C@@]1(C)[C@H]3[C@H]2C [Example 68] has an MIC [1] of 0.2 µg/mL (≈ 0.228 µM), an MIC (CANDIDA ALBICANS CCH 442) of over 100 µg/mL and an MIC [2] of 3.1 µg/mL (≈ 3.53 µM). It also gave an MIC [3] of over 100 µg/mL, an MIC (STR[…] 508) of 0.05 µg/mL (≈ 0.057 µM) and an MIC (M[…] ATCC 9341) of 0.1 µg/mL (≈ 0.114 µM). The MIC (M[…] ATCC 4698) was 0.39 µg/mL (≈ 0.445 µM), the MIC (EN[…] ATCC 8043) was 0.2 µg/mL (≈ 0.228 µM) and the MIC (ESCHERICHIA COLI SS) was 1.56 µg/mL (≈ 1.78 µM). It also gave an MIC [4] of over 100 µg/mL, an MIC [5] of over 100 µg/mL and an MIC [6] of 0.2 µg/mL (≈ 0.228 µM). It also gave an MIC [7] of over 100 µg/mL, an MIC [8] of 0.2 µg/mL (≈ 0.228 µM) and an MIC [9] of over 100 µg/mL. It also gave an MIC (ESCHERICHIA COLI DC-2) of 100 µg/mL (≈ 114 µM), an MIC [10] of 100 µg/mL (≈ 114 µM) and an MIC (PSEUDOMONAS CEPACIA 296I) of over 100 µg/mL. For the same compound, the MIC [11] was 0.05 µg/mL (≈ 0.057 µM), the MIC [12] was 0.1 µg/mL (≈ 0.114 µM) and the MIC [13] was 3.1 µg/mL (≈ 3.53 µM). It also gave an MIC [14] of over 100 µg/mL, an MIC [15] of over 100 µg/mL and an MIC (ESCHERICHIA COLI H560) of 50 µg/mL (≈ 57 µM). It also gave an MIC [16] of over 100 µg/mL, an MIC [17] of 0.78 µg/mL (≈ 0.889 µM) and an MIC [18] of 0.2 µg/mL (≈ 0.228 µM). The MIC [19] was 50 µg/mL (≈ 57 µM), the MIC (ESCHERICHIA COLI KNK 437) was over 100 µg/mL and the MIC [20] was 0.2 µg/mL (≈ 0.228 µM). The MIC [21] was over 100 µg/mL, the MIC [22] was over 100 µg/mL and the MIC [23] was 0.39 µg/mL (≈ 0.445 µM).

Compound CC[C@H]1OC(=O)[C@H](C)C(=O)[C@H](C)[C@@H](O[C@@H]2O[C@H](C)C[C@H](N(C)C)[C@H]2O)[C@](C)(OC)C[C@@H](C)C2=N[C@H](COCc3ccc(Cl)cc3)CN3C(=O)O[C@@]1(C)[C@H]3[C@H]2C [Example 79] has an MIC [1] of 0.39 µg/mL (≈ 0.492 µM), an MIC (CANDIDA ALBICANS CCH 442) of 100 µg/mL (≈ 126 µM) and an MIC (ESCHERICHIA COLI JUHL) of over 100 µg/mL. For the same compound, the MIC [2] was 0.78 µg/mL (≈ 0.984 µM), the MIC [3] was over 100 µg/mL and the MIC (STR[…] 508) was at most 0.005 µg/mL. It also gave an MIC (M[…] ATCC 9341) of 0.05 µg/mL (≈ 0.0631 µM), an MIC (M[…] ATCC 4698) of 0.39 µg/mL (≈ 0.492 µM) and an MIC (EN[…] ATCC 8043) of 0.1 µg/mL (≈ 0.126 µM). For the same compound, the MIC (ESCHERICHIA COLI SS) was 1.56 µg/mL (≈ 1.97 µM), the MIC [4] was over 100 µg/mL and the MIC [5] was over 100 µg/mL. The MIC [6] was 0.39 µg/mL (≈ 0.492 µM), the MIC [7] was over 100 µg/mL and the MIC [8] was 0.39 µg/mL (≈ 0.492 µM). The MIC [9] was over 100 µg/mL, the MIC (ESCHERICHIA COLI DC-2) was over 100 µg/mL and the MIC [10] was 100 µg/mL (≈ 126 µM). The MIC (PSEUDOMONAS CEPACIA 296I) was 100 µg/mL (≈ 126 µM), the MIC [11] was 0.01 µg/mL (≈ 0.0126 µM) and the MIC [12] was 0.01 µg/mL (≈ 0.0126 µM). For the same compound, the MIC [13] was 3.1 µg/mL (≈ 3.91 µM), the MIC [14] was over 100 µg/mL and the MIC [15] was 100 µg/mL (≈ 126 µM). It also gave an MIC (ESCHERICHIA COLI H560) of over 100 µg/mL, an MIC [16] of over 100 µg/mL and an MIC [17] of 0.39 µg/mL (≈ 0.492 µM). It also gave an MIC [19] of 50 µg/mL (≈ 63.1 µM), an MIC (ESCHERICHIA COLI KNK 437) of over 100 µg/mL and an MIC [20] of 0.39 µg/mL (≈ 0.492 µM). The MIC [21] was 100 µg/mL (≈ 126 µM), the MIC [22] was over 100 µg/mL and the MIC [23] was 0.39 µg/mL (≈ 0.492 µM).
